{
  "source": "patent US9284297B2",
  "about": "“Halofuginone analogs for inhibition of tRNA synthetases and uses thereof” (President and Fellows of Harvard College, priority 2008, dated 2016)",
  "key": {"[1]": {"test_system": "adjuvant-driven EAE", "experiment": "Adjuvant-driven experimental autoimmune encephalomyelitis (EAE), MOG33-55 immunization", "format": "in vivo, mice", "description": "The ability of systemic HF treatment to block IL-17 expression and associated autoimmune inflammation in vivo was examined using two distinct models of experimental autoimmune encephalomyelitis (EAE). […] The second model, a passive model of EAE induction, is initiated by the transfer of myelin proteolipid protein (PLP)-reactive T cells into lymphopenic hosts.\nAdjuvant-driven EAE was induced in 8 week-old wild-type B6 mice purchased from Charles River laboratories (Kingston, N.Y.) by subcutaneous injection of […] peptide emulsified in Incomplete Freund's Adjuvant (IFA) plus 5 mg/ml heat-killed M. tuburculosis (BD Biosciences) in both dorsal flanks as described in Veldhoen et al. (Nat. Immunol. 7(11):1151-1156, 2006).\nMice were injected daily with HF (2 μg/mouse) or vehicle control (DMSO) i.p. Clinical signs of EAE were assessed according to the following score: 0, no signs of disease; 1, flaccid tail; 2, weak gait/hind limb paresis; 3, hind limb paralysis; 4, tetraplegia; 5, moribund. Cytokine production during EAE was determined either in peripheral T cells isolated from spleen or lymph nodes of mice prior to disease onset (day 6-10) or in mononuclear cells isolated from the brain and spinal cords of mice with severe disease (clinical score ≧2) between days 15-20. Briefly, splenocytes were stained for intracellular cytokines following erythrocyte lysis with ammonium chloride buffer. T cells were isolated from brain and spinal cords of mice with active EAE following perfusion with cold PBS. Minced CNS tissue was digested with liberase C1 (0.33 mg/ml, Roche Diagnostics) or collagenase D (10 mg/ml, Roche Diagnostics) at 37° C. for 30-45 minutes. Cell suspensions were passed through 70 μm cell strainers (VWR) and fractionated by 70%/30% Percoll gradient centrifugation. Mononuclear cells were collected from the interphase, washed, and used for intracellular cytokine analysis."}, "[2]": {"target": "T1, methionyl tRNA synthetase (Oryctolagus cuniculus, UniProt G1SSX5)", "T1 construct": "from tissue; host or cells: rabbit reticulocyte lysate", "T1 sequence (G1SSX5 1-900)": "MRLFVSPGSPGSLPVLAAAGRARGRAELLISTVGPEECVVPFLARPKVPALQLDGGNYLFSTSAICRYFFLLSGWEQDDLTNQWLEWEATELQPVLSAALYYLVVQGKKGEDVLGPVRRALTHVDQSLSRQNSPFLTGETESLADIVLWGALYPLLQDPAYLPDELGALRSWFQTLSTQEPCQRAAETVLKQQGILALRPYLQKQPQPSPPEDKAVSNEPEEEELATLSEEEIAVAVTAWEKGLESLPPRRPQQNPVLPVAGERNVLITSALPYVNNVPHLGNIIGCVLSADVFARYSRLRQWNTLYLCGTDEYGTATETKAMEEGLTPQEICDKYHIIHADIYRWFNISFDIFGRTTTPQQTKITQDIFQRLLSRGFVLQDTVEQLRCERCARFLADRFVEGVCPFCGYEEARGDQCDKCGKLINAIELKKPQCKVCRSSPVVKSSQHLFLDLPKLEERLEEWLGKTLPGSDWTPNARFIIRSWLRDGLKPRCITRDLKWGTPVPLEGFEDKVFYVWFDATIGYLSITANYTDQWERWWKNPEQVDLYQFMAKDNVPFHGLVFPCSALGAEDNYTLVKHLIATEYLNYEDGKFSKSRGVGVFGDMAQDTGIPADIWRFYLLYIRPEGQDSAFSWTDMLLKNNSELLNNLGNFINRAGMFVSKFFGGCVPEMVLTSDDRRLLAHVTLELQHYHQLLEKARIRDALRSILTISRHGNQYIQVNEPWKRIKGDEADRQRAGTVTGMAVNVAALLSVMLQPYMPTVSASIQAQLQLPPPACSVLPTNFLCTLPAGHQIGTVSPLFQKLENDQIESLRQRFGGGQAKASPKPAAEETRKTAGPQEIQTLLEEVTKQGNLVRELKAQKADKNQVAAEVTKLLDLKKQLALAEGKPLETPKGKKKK", "experiment": "Incorporation of 35S-labeled methionine into tRNA in rabbit reticulocyte lysate", "format": "biochemical", "conditions": "crude in vitro translation system", "description": "Total RNA was extracted with acidic phenol-chloroform and tRNA was isolated using miRVANA microRNA isolation kit. Radioisotope incorporation into tRNA was measured in a scintillation counter."}, "[3]": {"test_system": "eIF2α phosphorylation and AAR-associated transcripts (Asns, Gpt2, eIF4Ebp1) in splenocytes", "experiment": "AAR activation in splenocytes of HF-injected mice", "format": "in vivo", "conditions": "i.p. 2.5 mg HF; spleens harvested 6 hours post injection", "description": "FIG. 18F, left panel, depicts western blot analysis of protein from cells of wild-type mice injected i.p. with vehicle (DMSO) or 2.5 mg HF. Spleens were harvested 6 hours post injection, red blood cells were removed by NH4Cl lysis buffer and immunoblotting for phosphorylated or total eIF2a was performed on whole cell extracts. FIG. 20F, right panel is a graph depicting levels of AAR-associated gene expression (Asns, Gpt2, eIF4Ebp1) analyzed by quantitative real-time PCR using cDNA from splenocytes of mice treated with DMSO or HF as above. Expression of AAR-associated transcripts were normalized to Hprt levels and data are presented as mean relative expression from duplicate samples±SD. All data represent 2-3 similar experiments.\nHF-mediated protection from adjuvant-driven EAE was accompanied by a reduction in T cell-derived IL-17-expression, both in peripheral lymph nodes prior to disease onset and in CNS tissue during active disease (FIG. 18E), as well as an overall reduction in CD4^+ T cell infiltrates into the CNS (FIG. 19)."}},
  "data": [
    {"smiles": "O=C(CC1NCCCC1O)Cn1cnc2cc(Br)c(Cl)cc2c1=O", "note": "(stereo not drawn) [Compound 1, 7-bromo-6-chloro-3-[3-(3-hydroxy-2-piperidinyl)-2-oxopropyl]-4(3H)-quinazolinone]", "values": [
      {"measurement": "IL-17 and IFNγ expression in T cells of lymph nodes and CNS", "setting": "[1]; 2 μg HF daily i.p.", "value": "impaired IL-17 production but did not affect IFNγ expression"},
      {"measurement": "EAE disease severity and frequency of onset", "setting": "[1]; 2 μg HF daily, ˜0.1 mg/kg, i.p.", "value": "significantly reduced both the severity of adjuvant-driven EAE disease and frequency of disease onset"},
      {"measurement": "EAE, HF not introduced until day 10 following immunization", "setting": "[1]; treatment from day 10", "value": "controls autoimmune inflammation even after inflammatory pathogenesis is evident"},
      {"measurement": "EAE, HF injection terminated at day 10 following immunization", "setting": "[1]; treatment until day 10", "value": "exerts a protective effect that extends well beyond the time of treatment"},
      {"measurement": "inhibition of 35S methionine incorporation into tRNA", "setting": "[2]", "value": "not a different tRNA synthetase (methionyl tRNA synthetase)"},
      {"measurement": "eIF2α phosphorylation and AAR-associated transcripts in splenocytes ex vivo", "setting": "[3]", "value": "increased eIF2α phosphorylation and expression of AAR-associated transcripts"}
    ]}
  ]
}
